Source: patent US20200158737A1, “METHODS OF MEASURING UBIQUITIN-LIKE MODIFICATIONS” (Regents of the University of Minnesota, priority 2018, published 2020)
Residues, ends and D or L forms follow the SMILES beside them. *: point of attachment. Cbz = O=C(OCc1ccccc1)*

Key:
[1] = target: T1, bovine serum albumin (BSA) (Bos taurus, UniProt P02769); test: Ninhydrin test with BSA standard to evaluate AcGG-NHS labeling efficiency
T1 construct: purchased VWR
Experimental: To test the amine labeling efficiency of AcGG-NHS, three groups of samples were prepared—Blank: 100 μL of 9 M urea/1×PBS, Control: 0.1 mg BSA (5 μL of 20 mg/mL BSA) and 95 μL of 9 M urea/1×PBS, Test: 0.1 mg BSA (5 μL of 20 mg/mL BSA) and 95 μL of 9 M urea/1×PBS. First, samples in each groups were reduced with a final concentration of 5 mM TCEP and alkylated with a final concentration of 5 mM iodoacetamide at room temperature with shaking in dark for 30 min. Then, samples in the Test group were derivatized with AcGG-NHS following the procedure described below. Each group was followed by a reaction with ⅕ the volume of Ninhydrin reagent solution (0.35 g ninhydrin in 100 mL EtOH) at 85° C. with gentle stirring for 5 min. Absorbance of each sample was measured at 577 nm using NanoDrop spectrophotometer (Fisher).
Ten μg of proteins were dried in a Speed-Vac and resuspended in 10 μL of 9 M urea/PBS with pH adjusted to ˜8.5. AcGG-NHS stock solution was prepared by dissolving AcGG-NHS in 50% ACN/50% H2O mixture at a concentration of 100 mg/mL. One μL of AcGG-NHS stock solution was added to each sample and the mixture was vortexed for 45 min. The labeling was repeated for another two times. The reaction was quenched with 5% hydroxylamine (pH=6.0, 1.5 M) for 15 min. Each sample was diluted 6× with PBS and proteins were digested with trypsin for overnight at 37° C. […]

[2] = tested on: ubiquitination sites in histone-enriched fractions of 293T cells; test: IBAQ-Ub site-specific stoichiometric analysis of known Ub sites on acid-extracted histones from 293T cells treated with DMSO or MG132; format: cell-based, human
Experimental: 293T cells were treated with 5 μM MG132 or the equal volume of DMSO for 12 hours. Histone extraction was performed as described previously (D. Shechter, et al., Nat Protoc 2007, 2, 1445-1457). Briefly, the cells were harvested by trypsin digestion. The cell pellets were washed with cold PBS and then lysed in 0.5 mL Extraction Buffer (PBS+0.5% Triton X-100 (v/v)) with protease inhibitor cocktail. After centrifuge, the supernatant was discarded and the pellet was washed with Extraction Buffer again to remove residual supernatant solution in pellet. The pellet was re-suspended in 0.4 ml 0.4 N H2SO4 for acid extraction. After overnight incubation at 4° C., the supernatant was extracted and proteins were precipitated with a final concentration of 20% TCA (v/v), followed by cold acetone wash. The protein pellet was air dried and protein concentration was measured by the Bradford assay after solubilizing the pellet with water.
Ten μg of proteins were dried in a Speed-Vac and resuspended in 10 μL of 9 M urea/PBS with pH adjusted to ˜8.5. AcGG-NHS stock solution was prepared by dissolving AcGG-NHS in 50% ACN/50% H2O mixture at a concentration of 100 mg/mL. One μL of AcGG-NHS stock solution was added to each sample and the mixture was vortexed for 45 min. The labeling was repeated for another two times. The reaction was quenched with 5% hydroxylamine (pH=6.0, 1.5 M) for 15 min. Each sample was diluted 6× with PBS and proteins were digested with trypsin for overnight at 37° C. (enzyme-to-substrate ratio of 1:100 (w/w)). When a second digestion was needed, another protease (Glu-C or Asp-N) was added (enzyme to substrate ratio of 1:100 w/w) for overnight digestion at 37° C. Following digestion, peptides were desalted and then resuspended in 10 μL of 9M urea/PBS at a pH ˜8.5. Heavy Ac—NHS stock solution was prepared by dissolving heavy Ac—NHS in ACN at a concentration of 100 mg/mL. One μL of heavy Ac—NHS stock solution was added to each sample for 45-min labeling. The labeling was repeated for two more times and the reaction was quenched with 5% hydroxylamine (pH=6.0, 1.5 M) for 15 min. The peptides were desalted with stage tips (C18) prior to LCMS analysis (J. Rappsilber, et al., Nat Protoc 2007, 2, 1896-1906).
Mass spectrometry data were collected using an Orbitrap Fusion mass spectrometer (Thermo Scientific) with a Top-12 method. Samples were resolubilized in HPLC buffer A (0.1% formic acid in water, v/v) and injected onto a self-packed reversed-phase capillary HPLC column (15 cm×100 μm, ReproSil-Pur Basic C18, 2.5 μm, Dr. Maisch GmbH). Peptides were separated by a Proxeon Easy nLC 1000 Nano-UPLC system (Thermo Scientific) at a flow rate of 200 nL/min with a 56 min gradient of 7-32% HPLC buffer B (0.1% formic acid in acetonitrile, v/v). The Orbitrap Fusion mass spectrometer (Thermo Scientific) was operated in a positive polarity mode with ion transfer tube temp of 275° C. Precursor ions were acquired in Orbitrap with a resolution 60,000 at 200 m/z and a mass range of 380-1800 m/z. Dynamic exclusion was enabled with an exclusion duration of 15 s and a mass tolerance of ±25 ppm. Fragment ions were acquired in the linear ion trap with an isolation window of 1.6 m/z and high energy collisional dissociation (HCD) of 35%.
Mass spectra were processed with MaxQuant software (version 1.5.3.12) (J. Cox, M. Mann, Nat Biotechnol 2008, 26, 1367-1372). […]

[3] = sites quantified in both DMSO and MG132 treated samples, histone-enriched chromatin fractions of 293T cells

T1 sequence (P02769 25-607): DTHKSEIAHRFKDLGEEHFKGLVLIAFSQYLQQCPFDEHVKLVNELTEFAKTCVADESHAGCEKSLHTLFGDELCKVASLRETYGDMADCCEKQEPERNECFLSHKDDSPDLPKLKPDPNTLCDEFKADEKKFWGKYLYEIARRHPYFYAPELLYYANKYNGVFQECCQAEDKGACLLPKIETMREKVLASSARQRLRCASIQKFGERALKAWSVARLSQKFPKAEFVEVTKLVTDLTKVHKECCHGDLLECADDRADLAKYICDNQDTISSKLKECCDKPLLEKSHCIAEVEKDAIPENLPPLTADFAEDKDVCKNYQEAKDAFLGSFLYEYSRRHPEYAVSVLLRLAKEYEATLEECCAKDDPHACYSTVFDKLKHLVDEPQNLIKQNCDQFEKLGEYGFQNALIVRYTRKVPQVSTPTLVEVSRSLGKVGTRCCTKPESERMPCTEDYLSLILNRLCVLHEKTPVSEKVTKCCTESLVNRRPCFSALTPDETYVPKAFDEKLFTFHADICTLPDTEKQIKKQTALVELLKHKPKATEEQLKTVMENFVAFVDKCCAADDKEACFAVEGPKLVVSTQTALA

CC(=O)NCC(=O)NCC(=O)ON1C(=O)CCC1=O [AcGG-NHS, Acetyl glycylglycine-N-hydroxysuccinamide] (HELM PEPTIDE1{[ac].G.G.[O=C1CCC(=O)N1O[*:1]]}$$$$V2.0)
Ninhydrin reactivity on BSA after labeling ([1]; BSA after AcGG-NHS labeling, FIG. 9B-9C): complete loss of Ninhydrin reactivity
reactivity to derivatize amino groups ([1]; Ninhydrin test, BSA standard, absorbance at 577 nm): high reactivity

CC(C)C[C@@H](C=O)NC(=O)[C@H](CC(C)C)NC(=O)[C@H](CC(C)C)NC(=O)OCc1ccccc1 [MG132] (Cbz-Leu-Leu-Leu-aldehyde)
abundance of histone H2B K117/K120 ubiquitination (Ub stoichiometry) ([2]; 293T cells, 5 μM MG132 12 hours, acid-extracted histones, stoichiometry 0.91% without MG132): below the detection limit
K48 polyubiquitin linkage stoichiometry on extracted histones ([2]; 293T cells, 5 μM MG132 12 hours, DMSO control 0.85%): 2.93%
increase of K48 ubiquitination stoichiometry versus DMSO control ([2]; 293T cells, MG132 treatment, extracted histones): more than tripled
sites with decreased ubiquitination upon treatment [2, 3]: 27 % of the sites
sites with increased Ub abundance upon treatment [2, 3]: 72 % of the sites
